Measurements taken from patent US20070238742A1, “METHODS OF PREPARATION AND RESOLUTION OF E/Z ISOMERS OF VINYLFURO[2,3-D]PYRIMIDINE AND THEIR BIOLOGICAL ACTIVITIES AND RELATED COMPOSITIONS AND METHODS OF TREATMENT” (priority 2006, published 2007).

Test system: chick aorta
Assay: aortic ring assay: chick aorta pieces in culture with angiogenic agents
Assay type: cell-based
Settings: for resumption of angiogenesis / regrowth of capillary-like structures on removal: after removal of the agent, relative to tissue not treated with antiangiogenic agents (control); for inhibition of angiogenesis compared with the E/Z mixture: E-isomer vs E/Z mixture 5
Method: Biological activity in angiogenic assays were chosen as a way to compare anti-angiogenic activity, potency an reversibility of inhibition. The studies were conducted on pieces of chick aorta placed in culture with a mixture of angiogenic agents and various compounds.
Unresolved mixture of E/Z-isomers 5 and isolated E-isomer 1 from the series of compounds under study were assessed for desirable biological activities, i.e., antiangiogenic activity and persistence of inhibitory activity. It is well known that binding vascular endothelial growth factor with antibodies or aptamers or inhibiting VEGF signaling with small molecules reduces and even reverses angiogenesis. However, angiogenesis rapidly resumes once the agent is removed (Mancuso et al., J. Clin. Invest., 116:610-21, 2006; Baffert et al., Am. J. Physiol. Heart, 290:H509-11, 2006). In the case of tumors, rapid regrowth of new vessels contributes to the regrowth and survival of the tumor.

Nc1nc(N)c2c(C=Cc3ccc4ccccc4c3)coc2n1 [E/Z mixture 5, 5-Z/E-(2-naphthalen-2-yl-vinyl)-furo[2,3-d]pyrimidine-2,4-diamine]
resumption of angiogenesis / regrowth of capillary-like structures on removal: ~72%
inhibition of capillary outgrowth (aortic ring assay, compound present): 84%

Nc1nc(N)c2c(/C=C/c3ccc4ccccc4c3)coc2n1 (single isomer, unassigned; isomer 1) [E-isomer 1, 5-E-(2-naphthalen-2-yl-vinyl)-furo[2,3-d]pyrimidine-2,4-diamine]
resumption of angiogenesis / regrowth of capillary-like structures on removal: 31%
inhibition of angiogenesis compared with the E/Z mixture (comparison in words): comparable inhibition of angiogenesis
inhibition of angiogenesis compared with the E/Z mixture (comparison in words, listed as E-isomer): greater inhibition on a molar basis
resumption of angiogenesis compared with the E/Z parent compound (comparison in words, after removal): less resumption of angiogenesis
